Source: ChEMBL document CHEMBL4007472, “Identification of novel TACE inhibitors compatible with topical application” (Bioorg Med Chem Lett, 2017)

How the values were obtained:
[1] = molecular target: Disintegrin and metalloproteinase domain-containing protein 17 (Mus musculus, UniProt Q9Z0F8); test: Inhibition of TACE in mouse RAW264.7 cells assessed as inhibition of LPS-stimulated TNFalpha production pretreated for 1 hr followed by LPS stimulation for 4 hrs by ELISA; format: cell-based; settings: read-out: IC50
[2] = molecular target: T1, Disintegrin and metalloproteinase domain-containing protein 17 (Homo sapiens, UniProt P78536); test: Inhibition of recombinant TACE catalytic domain (unknown origin) using Abz-LAQAVRSSSR-Dpa as substrate preincubated for 10 mins followed by substrate addition measured after 10 mins by FRET assay
[3] = molecular target: T1, Disintegrin and metalloproteinase domain-containing protein 17; test: Inhibition of recombinant human TACE catalytic domain using Mca-Pro-Leu-Ala-Gln-Ala-Val-Dpa-Arg-Ser-Ser-Ser-Arg-NH2 as substrate after 2 hrs by fluorescence assay

Disintegrin and metalloproteinase domain-containing protein 17 (Mus musculus, UniProt Q9Z0F8), sequence (Q9Z0F8 whole entry, the tested form may be a part): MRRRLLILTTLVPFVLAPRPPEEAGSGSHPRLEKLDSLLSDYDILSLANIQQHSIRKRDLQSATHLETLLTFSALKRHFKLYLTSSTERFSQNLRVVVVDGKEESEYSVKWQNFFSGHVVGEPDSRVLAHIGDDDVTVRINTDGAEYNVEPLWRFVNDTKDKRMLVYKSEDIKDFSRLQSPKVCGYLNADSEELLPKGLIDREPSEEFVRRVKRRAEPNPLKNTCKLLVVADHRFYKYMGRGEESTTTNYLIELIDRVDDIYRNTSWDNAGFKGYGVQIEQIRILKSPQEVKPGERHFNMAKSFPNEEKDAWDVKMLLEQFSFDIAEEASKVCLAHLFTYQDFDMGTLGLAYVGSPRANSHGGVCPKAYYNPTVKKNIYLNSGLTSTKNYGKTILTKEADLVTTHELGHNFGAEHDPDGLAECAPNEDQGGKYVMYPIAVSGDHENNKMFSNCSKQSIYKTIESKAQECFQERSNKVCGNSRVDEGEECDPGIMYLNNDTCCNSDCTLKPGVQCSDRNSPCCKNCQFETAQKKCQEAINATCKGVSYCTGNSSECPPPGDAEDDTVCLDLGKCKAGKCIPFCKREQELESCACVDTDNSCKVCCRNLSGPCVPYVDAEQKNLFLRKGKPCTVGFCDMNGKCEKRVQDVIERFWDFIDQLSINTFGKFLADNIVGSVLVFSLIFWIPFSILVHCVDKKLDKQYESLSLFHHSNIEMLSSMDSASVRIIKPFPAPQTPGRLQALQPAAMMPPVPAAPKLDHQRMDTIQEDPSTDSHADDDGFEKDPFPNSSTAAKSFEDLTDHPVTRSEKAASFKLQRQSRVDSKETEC
T1 sequence (P78536 whole entry, the tested form may be a part): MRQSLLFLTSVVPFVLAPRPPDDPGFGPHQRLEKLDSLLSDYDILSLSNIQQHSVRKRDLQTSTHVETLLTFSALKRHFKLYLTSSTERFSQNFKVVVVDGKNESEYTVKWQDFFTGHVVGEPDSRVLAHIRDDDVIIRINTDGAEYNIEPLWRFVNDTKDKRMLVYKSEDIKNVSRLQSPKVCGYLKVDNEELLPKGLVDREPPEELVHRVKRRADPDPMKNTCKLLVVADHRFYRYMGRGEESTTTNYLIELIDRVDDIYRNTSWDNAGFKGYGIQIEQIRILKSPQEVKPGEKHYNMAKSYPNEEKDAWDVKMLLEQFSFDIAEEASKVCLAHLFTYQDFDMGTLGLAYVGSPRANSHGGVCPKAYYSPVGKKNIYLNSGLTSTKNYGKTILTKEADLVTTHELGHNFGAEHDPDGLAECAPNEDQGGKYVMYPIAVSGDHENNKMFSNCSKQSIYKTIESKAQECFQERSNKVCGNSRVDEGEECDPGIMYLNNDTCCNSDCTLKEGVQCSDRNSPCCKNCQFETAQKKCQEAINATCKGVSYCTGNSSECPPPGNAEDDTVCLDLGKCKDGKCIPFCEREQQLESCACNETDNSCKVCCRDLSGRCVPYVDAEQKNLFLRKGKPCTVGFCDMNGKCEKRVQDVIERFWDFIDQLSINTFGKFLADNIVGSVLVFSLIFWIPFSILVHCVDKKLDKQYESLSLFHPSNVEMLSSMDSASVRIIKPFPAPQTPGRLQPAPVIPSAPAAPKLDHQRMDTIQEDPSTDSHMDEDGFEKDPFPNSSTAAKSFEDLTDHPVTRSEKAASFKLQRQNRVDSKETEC

SMILES	IC50 [1] [nM]	IC50 ([2]; read-out: pIC50 (converted)) [nM]	IC50 [3] [nM]	IC50 ([2]; read-out: IC50) [nM]
Cc1cc(COc2ccc(S(=O)(=O)N[C@@H]3CCN(C(C)C)C[C@]3(C)C(=O)NO)cc2)c2ccccc2n1	1000	200		
CC(=O)N1CC[C@@H](NS(=O)(=O)c2ccc(OCc3cc(C)nc4ccccc34)cc2)[C@@](C)(C(=O)NO)C1	1000	6.31		
Cc1cc(COc2ccc(S(=O)(=O)N3CCC(CC(C)C)(C(=O)NO)C3)cc2)c2ccccc2n1 (stereo not drawn)			35	
Cc1cc(COc2ccc(S(=O)(=O)N3CCCOC(C(=O)NO)C3)cc2)c2ccccc2n1 (stereo not drawn)			71	
Cc1cc(COc2ccc(S(=O)(=O)N[C@@H]3CCN(C=O)C[C@@H]3C(=O)NO)cc2)c2ccccc2n1	7			
CC(=O)N1C[C@H](S(=O)(=O)c2ccc(OCc3cc(C)nc4c3CCCC4)cc2)C[C@H]1C(=O)NO			3600	
Cc1cc(COc2ccc(S(=O)(=O)N[C@@H]3CCC[C@]3(C)C(=O)NO)cc2)c2ccccc2n1	270			0.6
Cc1cc(COc2ccc(S(=O)(=O)N(C)[C@H]3[C@@H](C(=O)NO)[C@@H]4CC[C@H]3O4)cc2)c2ccccc2n1	10	1		
Cc1cc(COc2ccc(S(=O)(=O)N[C@@H]3CN(C(=O)NC(C)(C)C)CC[C@@H]3C(=O)NO)cc2)c2ccccc2n1	58	1.26		
CC#CCOc1ccc(S(=O)(=O)[C@H]2C[C@H](C(=O)NO)N(C(C)=O)C2)cc1			> 10000	
Cc1cc(COc2ccc(S(=O)(=O)N[C@@H]3CCC[C@]3(O)C(=O)NO)cc2)c2ccccc2n1	82			
Cc1cc(COc2ccc(S(=O)(=O)N[C@@H]3CCOC[C@]3(C)C(=O)NO)cc2)c2ccccc2n1	1670			
Cc1cc(COc2ccc(S(=O)(=O)N3CCC(Cc4ccccc4)(C(=O)NO)C3)cc2)c2ccccc2n1 (stereo not drawn)			42	
CC(=O)N1CCCN(S(=O)(=O)c2ccc(OCc3cc(C)nc4ccccc34)cc2)CC1C(=O)NO (stereo not drawn)			200	
CC(=O)N1CCC(NS(=O)(=O)c2ccc(OCc3cc(C)nc4ccccc34)cc2)C(C(=O)NO)C1 (stereo not drawn)	20	1		
CC(=O)N1CCC(C(=O)NO)C(NS(=O)(=O)c2ccc(OCc3cc(C)nc4ccccc34)cc2)C1 (stereo not drawn)	202	1.26		
Cc1cc(COc2ccc(S(=O)(=O)N[C@@H]3CCC[C@]3(F)C(=O)NO)cc2)c2ccccc2n1	19			0.6

SMILES	IC50 [1] [nM]	IC50 ([2]; read-out: pIC50 (converted)) [nM]	IC50 [3] [nM]	IC50 ([2]; read-out: IC50) [nM]
Cc1cc(COc2ccc(S(=O)(=O)N(C)[C@@H]3CCC[C@]3(CO)C(=O)NO)cc2)c2ccccc2n1	440			0.6
Cc1cc(COc2ccc(S(=O)(=O)NC3CCN(CCO)CC3C(=O)NO)cc2)c2ccccc2n1 (stereo not drawn)	180	3.16		
Cc1cc(COc2ccc(S(=O)(=O)N[C@@H]3CN(C=O)CCC3C(=O)NO)cc2)c2ccccc2n1 (stereo partly drawn)	21			
CC[C@]1(C(=O)NO)CCC[C@H]1NS(=O)(=O)c1ccc(OCc2cc(C)nc3ccccc23)cc1	1000	2.51		
Cc1cc(COc2ccc(S(=O)(=O)N[C@@H]3CCN(C=O)C[C@]3(O)C(=O)NO)cc2)c2ccccc2n1	160	1.26		
CC#CCOc1ccc(S(=O)(=O)N2CCN(C(C)=O)C(C(=O)NO)C2)cc1 (stereo not drawn)			1500	
CC#CCOc1ccc(S(=O)(=O)[C@@H]2C[C@H](C(=O)NO)N(C(C)=O)C2)cc1			> 10000	
CCC1(C(=O)NO)CCN(S(=O)(=O)c2ccc(OCc3cc(C)nc4ccccc34)cc2)C1 (stereo not drawn)			16	
C#CCN1CC[C@@H](NS(=O)(=O)c2ccc(OCc3cc(C)nc4ccccc34)cc2)[C@@](C)(C(=O)NO)C1	1000	20		
Cc1cc(COc2ccc(S(=O)(=O)N(C)[C@@H]3[C@@H]4CC[C@@H](C4)[C@@H]3C(=O)NO)cc2)c2ccccc2n1	52	1		
CC#CCOc1ccc(C(=O)N2CCC(C(=O)NO)C2)cc1 (stereo not drawn)			> 10000	
Cc1cc(COc2ccc(S(=O)(=O)N3CCOC(C(=O)NO)C3)cc2)c2ccccc2n1 (stereo not drawn)			180	
CC#CCOc1ccc(S(=O)(=O)[C@@H]2C[C@@H](C(=O)NO)N(C(C)=O)C2)cc1			10000	
CC(=O)N1CCN(S(=O)(=O)c2ccc(OCc3cc(C)nc4c3CCCC4)cc2)CC1(C)C(=O)NO (stereo not drawn)			30	
Cc1cc(COc2ccc(S(=O)(=O)N[C@@H]3CCN(S(=O)(=O)C(C)C)C[C@]3(C)C(=O)NO)cc2)c2ccccc2n1	762	2.51		
CC(=O)N1CCN(C(=O)c2ccc(OCc3cc(C)nc4c3CCCC4)cc2)CC1C(=O)NO (stereo not drawn)			760	
